Data reported in patent US11679107B2 (Eisai R&D Management Co., Ltd., priority 2018, dated 2023).
Read-outs that look alike come from different tables or passages of the source.

Tests used:
[1] = test system: Ad2 variant pre-mRNAs spliced in HeLa S3 nuclear extracts; assay: In vitro splicing assay (IVS), RT-qPCR of spliced product; assay type: biochemical; settings: for IC50: geometric mean; for Ratio Ad2.1/2.2: ratio of IVS IC50 Ad2.1 to Ad2.2
Procedure, shortened: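 Read-out is one-step TaqMan RT-qPCR of spliced Ad2 mRNA with Ftz as reference, normalized to DMSO and fit by non-linear regression. Reactions held HeLa S3 nuclear extract, 2 ng Ad2-derived pre-mRNA and test compound, with 15 min preincubation. Splicing was started with ATP-containing activation buffer and run 90 min at 30 °C.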

SF3b complexes = biological target: T1, SF3b complexes (Homo sapiens, UniProt O75533+Q7RTV0); assay: Scintillation proximity assay (SPA) with [3H]-labelled pladienolide probe; assay type: binding; settings: SF3B1 (WT); geometric mean; read-out: SPA-ATS GMean IC50 (nM) SF3B1 (WT)
T1 construct: endogenous in cells; host or cells: Nuclear extracts; A HeLa S3 extract preparation is described for the in vitro splicing assay
Procedure, shortened: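 SF3b complexes captured from nuclear extracts on anti-SF3B1 antibody SPA beads; test compounds pre-incubated 30 min before 2.5 nM [3H]-pladienolide probe added, then 30 min incubation. Bound probe read by scintillation; values from non-linear regression of concentration–response curves.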

[2] = test system: Panc 05.04 cells (SF3b K700E mutant); assay: Cell proliferation and viability, CellTiter-Glo, 72 hours; assay type: cell-based; settings: PANC0504.1; for CTGlo-ATS Mean MinResponse % 72 h PANC0504.1: -100% = cidal, 0% = static, 100% = uninhibited growth; for GI50: geometric mean
Procedure, shortened: (§1)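 RPMI-1640/10% FBS (Panc: + insulin, FBS 15%); 11-pt half-log dose, ~10 μM-100 pM, 0.1% DMSO; 37° C, 5% CO2; ATP luminescence read; % inhibition vs T0 and vehicle, −100% cidal to 100% uninhibited growth.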

[3] = test system: NCI-H1568 cells (high MCL1); assay: as above; assay type: cell-based; settings: NCIH1568.1; for CTGlo-ATS Mean MinResponse % 72 h NCIH1568.1: -100% = cidal, 0% = static, 100% = uninhibited growth; for GI50: geometric mean
Procedure, shortened: as §1

[4] = Ad2.1 pre-mRNA substrate, read-out: qPCR-IVS-ATS GMean IC50 (nM) Ad2.1
[5] = Ad2.2 pre-mRNA substrate, read-out: qPCR-IVS-ATS GMean IC50 (nM) Ad2.2
[6] = Panc 05.04, read-out: CTGlo-ATS GMean GI50 (nM) 72 h PANC0504.1, 72 h
[7] = NCI-H1568, read-out: CTGlo-ATS GMean GI50 (nM) 72 h NCIH1568.1, 72 h
[8] = Panc 05.04, 72 h, read-out: CTGlo-ATS GMean GI50 (nM) 72 h PANC0504.1, 72 h
[9] = NCI-H1568, 72 h, read-out: CTGlo-ATS GMean GI50 (nM) 72 h NCIH1568.1, 72 h

| Structure (SMILES) | IC50 [1, 4] | IC50 [1, 5] | Ratio Ad2.1/2.2 [1] | IC50 (SF3b complexes) | CTGlo-ATS Mean MinResponse % 72 h PANC0504.1 ([2]; 72 h) | GI50 [2, 6] | CTGlo-ATS Mean MinResponse % 72 h NCIH1568.1 ([3]; 72 h) | GI50 [3, 7] | GI50 [2, 8] | GI50 [3, 9] |
| --- | --- | --- | --- | --- | --- | --- | --- | --- | --- | --- |
| C/C(=C\c1cc(F)cc(N2CCOCC2)c1)[C@H]1OC(=O)C[C@H](O)CC[C@H](C)[C@@H](OC(=O)NCCN(C)C)/C=C/[C@@H]1C [Compound 242, [(2S,3S,4E,6R,7S,10R)-2-[(E)-1-(3-fluoro-5-morpholin-4-ylphenyl)prop-1-en-2-yl]-10-hydroxy-3,7-dimethyl-12-oxo-1-oxacyclododec-4-en-6-yl] N-[2-(dimethylamino)ethyl]carbamate] | 7150 nM | 62.1 nM | 115.051 | 15.3 nM | −92.786% | 68.9 nM | −65.744% | 180 nM |  |  |
| C/C(=C\c1cc(F)cc(N2CCOCC2)c1)[C@H]1OC(=O)C[C@H](O)CC[C@H](C)[C@@H](OC(=O)N2CC[C@H](N(C)C)C2)/C=C/[C@@H]1C [Compound 244, [(2S,3S,4E,6R,7S,10R)-2-[(E)-1-(3-fluoro-5-morpholin-4-ylphenyl)prop-1-en-2-yl]-10-hydroxy-3,7-dimethyl-12-oxo-1-oxacyclododec-4-en-6-yl] (3S)-3-(dimethylamino)pyrrolidine-1-carboxylate] | 3580 nM | 38.5 nM | 93.018 | 3.38 nM | −95.630% | 27.6 nM | −65.165% | 20.2 nM |  |  |
| C/C(=C\c1cc(F)cc(N2CCOCC2)c1)[C@H]1OC(=O)C[C@H](O)CC[C@H](C)[C@@H](OC(=O)N(C)CCC#N)/C=C/[C@@H]1C [Compound 245, [(2S,3S,4E,6R,7S,10R)-2-[(E)-1-(3-fluoro-5-morpholin-4-ylphenyl)prop-1-en-2-yl]-10-hydroxy-3,7-dimethyl-12-oxo-1-oxacyclododec-4-en-6-yl] N-(2-cyanoethyl)-N-methylcarbamate] | 8880 nM | 64.8 nM | 136.897 | 17.4 nM | −95.548% |  | −46.475% |  | 113 nM | 62.3 nM |
| C/C(=C\c1cc(F)cc(N2CCOCC2)c1)[C@H]1OC(=O)C[C@H](O)CC[C@H](C)[C@@H](OC(=O)N2CCN(C)C(C)(C)C2)/C=C/[C@@H]1C [Compound 246, [(2S,3S,4E,6R,7S,10R)-2-[(E)-1-(3-fluoro-5-morpholin-4-ylphenyl)prop-1-en-2-yl]-10-hydroxy-3,7-dimethyl-12-oxo-1-oxacyclododec-4-en-6-yl] 3,3,4-trimethylpiperazine-1-carboxylate] | 279 nM | 36.1 nM | 7.730 | 5.8 nM | −95.467% | 16.5 nM | −68.331% | 12.1 nM |  |  |
| C/C(=C\c1cc(F)cc(N2CCOCC2)c1)[C@H]1OC(=O)C[C@H](O)CC[C@H](C)[C@@H](OC(=O)N2CC[C@@H](F)C2)/C=C/[C@@H]1C [Compound 247, [(2S,3S,4E,6R,7S,10R)-2-[(E)-1-(3-fluoro-5-morpholin-4-ylphenyl)prop-1-en-2-yl]-10-hydroxy-3,7-dimethyl-12-oxo-1-oxacyclododec-4-en-6-yl] (3R)-3-fluoropyrrolidine-1-carboxylate] | 50.8 nM | 34.6 nM | 1.467 | 14.4 nM | −77.509% | 40.5 nM | −67.545% | 31.4 nM |  |  |
| C/C(=C\c1cc(F)cc(NS(=O)(=O)N(C)C)c1)[C@H]1OC(=O)C[C@H](O)CC[C@H](C)[C@@H](OC(=O)N2CCN(C)CC2)/C=C/[C@@H]1C [Compound 248, [(2S,3S,4E,6R,7S,10R)-2-[(E)-1-[3-(dimethylsulfamoylamino)-5-fluorophenyl]prop-1-en-2-yl]-10-hydroxy-3,7-dimethyl-12-oxo-1-oxacyclododec-4-en-6-yl] 4-methylpiperazine-1-carboxylate] | > 25000 nM | 76.4 nM | 327.274 | 6.62 nM | −92.622% | 75.8 nM | −46.753% | 97 nM |  |  |
| C/C(=C\c1cc(F)cc(NC(=O)CC2CC2)c1)[C@H]1OC(=O)C[C@H](O)CC[C@H](C)[C@@H](OC(=O)N2CCN(C)CC2)/C=C/[C@@H]1C [Compound 250, [(2S,3S,4E,6R,7S,10R)-2-[(E)-1-[3-[(2-cyclopropylacetyl)amino]-5-fluorophenyl]prop-1-en-2-yl]-10-hydroxy-3,7-dimethyl-12-oxo-1-oxacyclododec-4-en-6-yl] 4-methylpiperazine-1-carboxylate] | 2190 nM | 44.1 nM | 49.517 | 3.63 nM | −94.381% | 23.1 nM | −58.677% | 15.6 nM |  |  |
| CC(=O)N1CCC(n2nnc3c(F)cc(/C=C(\C)[C@H]4OC(=O)C[C@H](O)CC[C@H](C)[C@@H](OC(=O)N5CCNCC5)/C=C/[C@@H]4C)cc32)CC1 [Compound 253, [(2S,3S,4E,6R,7S,10R)-2-[(E)-1-[3-(1-acetylpiperidin-4-yl)-7-fluorobenzotriazol-5-yl]prop-1-en-2-yl]-10-hydroxy-3,7-dimethyl-12-oxo-1-oxacyclododec-4-en-6-yl] piperazine-1-carboxylate] | 10 nM | 8.59 nM | 1.167 | 1.92 nM | −80.763% |  | −84.782% |  | 12.9 nM | 2.42 nM |
| C/C(=C\c1cccc(COC(=O)N2CC[C@@H](O)C2)c1)[C@H]1OC(=O)C[C@H](O)CC[C@H](C)[C@@H](OC(=O)N2CCN(C)CC2)/C=C/[C@@H]1C [Compound 254, [(2S,3S,4E,6R,7S,10R)-10-hydroxy-2-[(E)-1-[3-[[(3R)-3-hydroxypyrrolidine-1-carbonyl]oxymethyl]phenyl]prop-1-en-2-yl]-3,7-dimethyl-12-oxo-1-oxacyclododec-4-en-6-yl] 4-methylpiperazine-1-carboxylate] | 22000 nM | 52.2 nM | 422.058 | 5.12 nM | −77.065% |  | −41.424% |  | 29 nM | 23.7 nM |
| C/C(=C\c1cccc(COC(=O)N2CCOCC2)c1)[C@H]1OC(=O)C[C@H](O)CC[C@H](C)[C@@H](OC(=O)N2CCN(C)CC2)/C=C/[C@@H]1C [Compound 257, [3-[(E)-2-[(2S,3S,4E,6R,7S,10R)-10-hydroxy-3,7-dimethyl-6-(4-methylpiperazine-1-carbonyl)oxy-12-oxo-1-oxacyclododec-4-en-2-yl]prop-1-enyl]phenyl]methyl morpholine-4-carboxylate] | > 25000 nM | 117 nM | 213.903 | 5.75 nM | −75.412% |  | −4.151% |  | 71.5 nM | 266 nM |
| C/C(=C\c1cccc(COC(=O)N(C)C)c1)[C@H]1OC(=O)C[C@H](O)CC[C@H](C)[C@@H](OC(=O)N2CCN(C)CC2)/C=C/[C@@H]1C [Compound 258, [(2S,3S,4E,6R,7S,10R)-2-[(E)-1-[3-(dimethylcarbamoyloxymethyl)phenyl]prop-1-en-2-yl]-10-hydroxy-3,7-dimethyl-12-oxo-1-oxacyclododec-4-en-6-yl] 4-methylpiperazine-1-carboxylate] | > 25000 nM | 73.8 nM | 338.606 | 11.7 nM | −65.918% |  | −12.669% |  | 28.7 nM | 29.8 nM |
| C/C(=C\c1cccc(COC(=O)N2CC[C@@H](F)C2)c1)[C@H]1OC(=O)C[C@H](O)CC[C@H](C)[C@@H](OC(=O)N2CCN(C)CC2)/C=C/[C@@H]1C [Compound 260] | > 25000 nM | 99.4 nM | 251.398 | 0.196 nM | −47.734% | 39.5 nM | −44.621% | 42.3 nM |  |  |
